Assays:
[1] = test system: DRG neurons; assay: Calcium imaging of dissociated DRG neurons expressing GCaMP6f; format: cell-based, mouse; settings: chloroquine 100 μM, histamine 100 μM, capsaicin 10 μM, sequential challenge
Experimental: Primary cultures of DRG neurons were generated from C57BL/6N mice as described previously ([65]). […] Imaging was performed with an ORCA-Flash 4.0 […] digital complementary metal-oxide semiconductor camera (Hamamatsu, Bridgewater, NJ) at 1 Hz. Fluorescence intensity in hand-drawn regions of interest was extracted using HCImage (Hamamatsu) and plotted against time. The R package […] was used to generate a heatmap plot to visualize fluorescence signals in all the neurons.

[2] = test system: Mrgpra3 DRG neurons; assay: Whole-cell patch clamp of Mrgpra3-Cre-eGFP DRG neurons; format: cell-based, mouse; settings: chloroquine 100 μM, pH 7.4
Experimental: Whole-cell patch clamp was performed on Mrgrpa3-Cre-eGFP neurons as previously described ([67]). Briefly, DRG neurons collected from Mrgpra3-Cre-eGFP mice were cultured on coverslips for 48 to 72 hours. Whole-cell current clamp recordings were performed on dissociated DRG neurons expressing eGFP. Data were recorded with an Axon 700B amplifier and pCLAMP 11 software (Molecular Devices, Sunnyvale). Pipette electrodes were pulled with P-97 microelectrode puller (Sutter Instrument) from borosilicate glass (World Precision Instruments Inc.) with resistances of 2 to 4 megohms. The extracellular solution contained 140 mM NaCl, 4 mM KCl, 2 mM CaCl2, 1 mM MgCl2, 10 mM Hepes, and 10 mM glucose with a pH of 7.4 and an osmolality of 300 mosm/kg. The pipette solution contained 140 mM KCl, 1 mM MgCl2, 1 mM EGTA, 10 mM Hepes, 3 mM adenosine 5′-triphosphate, and 0.5 mM guanosine 5′-triphosphate with a pH of 7.4 and an osmolality of 300 mosm/kg.

[3] = test system: mast cell; settings: through MRGPRs; cited from earlier work
Source text: In particular, MRGPRX2 and the mouse ortholog Mrgprb2 are receptors for many cationic molecules ([22]–[25]). Activation of MRGPRs on mast cells can cause immunoglobulin E–independent allergic reactions (pseudo-allergy) including extravasation, itch, and pain ([22], [26]). Some human and tick β-defensins can activate not only MRGPRX2/Mrgprb2 but also MRGPRX1/Mrgprc11, which are expressed on sensory neurons ([27]).

Molecule	response of Gpr15l-responsive DRG neurons to other pruritogens/capsaicin [1]	neurons firing action potentials [2]	mast cell degranulation [3]
NCCc1c[nH]cn1 [histamine]	The majority of these neurons also responded		
CCN(CC)CCCC(C)Nc1ccnc2cc(Cl)ccc12 (centres unmarked) [chloroquine]	The majority of these neurons also responded	7/8	
LL-37: cationic antimicrobial peptide, cathelicidin (LLGDFFRKSKEKIGKEFKRIVQRIKDFLRNLVPRTES; Antibacterial peptide LL-37; UniProt P49913 134-170, looked up)			can cause mast cell degranulation
COc1cc(CNC(=O)CCCC/C=C/C(C)C)ccc1O [capsaicin]	The majority of these neurons also responded		

— paper PMC9200282, “GPR15L is an epithelial inflammation-derived pruritogen” (Science Advances, 2022)
